Measured values from patent US12263146B2, “Non-linear dosing of mirdametinib” (SpringWorks Therapeutics Inc., priority 2022, dated 2025).

System: patients ≥2 and <25 years with brain cancer
Test: Phase I/II trial of single agent mirdametinib in children, adolescents and young adults with brain cancer
Format: in vivo, human
Method: Example 1: Phase I/II Evaluation of Single Agent Mirdametinib, a Brain-Penetrant MEK1/2 Inhibitor, for the Treatment of Children, Adolescents, and Young Adults with Brain Cancer A multi-arm […] trial of mirdametinib is to be conducted in patients ≥2 and <25 years with brain cancer. Phase I requires participants have no prior exposure to MEK inhibitors and recurrent/progressive disease with biopsy-proven evidence of MAPK pathway activation. Three escalating dose levels (2 mg/m^2/dose BID, 2.5 mg/m^2/dose BID and 3 mg/m^2/dose BID) are planned using a rolling 6 design. The median age enrolled in the study is 10 years old (3-21).

O=C(NOC[C@H](O)CO)c1ccc(F)c(F)c1Nc1ccc(I)cc1F (single isomer, unassigned) [mirdametinib]
MEK related retinopathy or cardiopathy (2, 2.5 and 3 mg/m^2/dose BID, patients with brain cancer): No MEK related retinopathy or cardiopathy is observed | disease progressions (2, 2.5 and 3 mg/m^2/dose BID, patients with recurrent/progressive brain cancer with MAPK pathway activation): No disease progressions | dose-limiting toxicities (all three dose levels (2, 2.5 and 3 mg/m^2/dose BID), patients with brain cancer, no prior MEK inhibitor): No dose-limiting toxicities | clinical activity (overall statement) (dosed continuously in patients with brain cancer): clinically promising
